Columns and labels:
[1] = 900 mg SJW of another brand; absence of autoinduction; cited from earlier work
CYP3A [2] = assay: Oral midazolam microdose; type: in vivo, human; details: for F GMR: GMR (90% CI); for bioavailability: F (absolute bioavailability)
CYP3A [3] = assay: Intravenous midazolam microdose; type: in vivo, human
CYP3A [4] = details: 900 mg SJW daily, same brand; cited from earlier work
CYP3A [5] = assay: Limited-sampling strategy; details: human, in vivo, po, 30 ug
[6] = cited from earlier work
[7] = SJW 1800 + rifampin 600 for 7 days vs SJW 1800

Which “reduction of exposure to single carbamazepine doses” value [1] does the source give for NC(=O)N1c2ccccc2C=Cc2ccccc21 [carbamazepine] here?
Its value is 21%.

Which results are given for Cc1ncc2n1-c1ccc(Cl)cc1C(c1ccccc1F)=NC2 [midazolam]?
F GMR (CYP3A [2]; 30 μg midazolam orally, SJW 1800 + rifampin 600 vs baseline): 0.2070 (0.1704–0.2516); F GMR (CYP3A [2]; 30 μg midazolam orally, SJW 1800 vs baseline): 0.4437 (0.3735–0.5271); CL/F (CYP3A [2]; 30 μg midazolam orally, baseline, GM (95% CI)): 1649 (1290–2109) mL min^−1; further increase of midazolam CL orally (CYP3A [2]; [7]): 3.06 fold; AUC(0-inf) (CYP3A [2]; human, plasma, po, 30 ug): 0.303 ng·h/mL; AUC(0-t) (CYP3A [2]; human, plasma, po, 30 ug): 0.258 ng·h/mL; Cmax (CYP3A [2]; human, plasma, po, 30 ug): 0.139 ng/mL; Vd/F (CYP3A [2]; human, plasma, po, 30 ug): 422 L; bioavailability (CYP3A [2]; human, plasma, po, 30 ug, 30 μg midazolam orally, SJW 1800 mg/day for 14 days, GM (95% CI)): 15.6%; bioavailability (CYP3A [2]; human, plasma, po, 30 ug, 30 μg midazolam orally, baseline, GM (95% CI)): 35.1%; further increase of midazolam CL i.v. (CYP3A [3]; [7]): 1.43 fold; AUC(0-inf) (CYP3A [3]; human, plasma, intravenous, 10 ug): 0.287 ng·h/mL; AUC(0-inf) (CYP3A [3]; human, plasma, iv, 10 ug): 0.334 ng·h/mL; Vd (CYP3A [3]; human, plasma, iv, 10 ug): 148 L; half-life (CYP3A [3]; human, plasma, iv, 10 ug): 2.97 h; fold increase of midazolam clearance with a regular midazolam dose (CYP3A [4]): 4.22; AUC (CYP3A [5]): 0.0657 ng·h/mL

Which “daily doses at which maximum induction is already reached” value [6] does the source give for CO[C@H]1/C=C/O[C@@]2(C)Oc3c(C)c(O)c4c(O)c(c(/C=N/N5CCN(C)CC5)c(O)c4c3C2=O)NC(=O)/C(C)=C\C=C\[C@H](C)[C@H](O)[C@@H](C)[C@@H](O)[C@@H](C)[C@H](OC(C)=O)[C@@H]1C [rifampin] here?
Its value is 300 to 600 mg.
